Assay results: ChEMBL document CHEMBL1201862, “PubChem BioAssay data set” (2004)
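Growth conditions: 96-well plates. Treatment: test compound, 48 hours, 5 concentrations. Analysis: linear interpolation between bracketing concentrations; unreached endpoints set to highest concentration. At the GI50, growth is halved.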 Activity calls are given as the source filed them. Rule as the data show it: active = GI50 up to about 1.1 µM and inactive = higher.

Tests used:
Assay in all cases: NCI anticancer screen, dose series, 48 h
UACC-62 = tested on: UACC-62
SNB-19 = tested on: SNB-19
SN12C = tested on: SN12C
TK-10 = tested on: TK-10
OVCAR-3 = tested on: OVCAR-3
HCC 2998 = tested on: HCC 2998
SR = tested on: SR
HL-60 = tested on: HL-60
786-0 = tested on: 786-0
PC-3 = tested on: PC-3
OVCAR-5 = tested on: OVCAR-5
SK-MEL-2 = tested on: SK-MEL-2
MDA-N = tested on: MDA-N
K562 = tested on: K562
EKVX = tested on: EKVX
LOX IMVI = tested on: LOX IMVI
RPMI-8226 = tested on: RPMI-8226
A498 = tested on: A498
HT-29 = tested on: HT-29
OVCAR-4 = tested on: OVCAR-4
U-251 = tested on: U-251
CCRF-CEM = tested on: CCRF-CEM
HCT-15 = tested on: HCT-15
HOP-92 = tested on: HOP-92
SK-MEL-28 = tested on: SK-MEL-28
M14 = tested on: M14
SK-MEL-5 = tested on: SK-MEL-5
MDA-MB-435 = tested on: MDA-MB-435
DU-145 = tested on: DU-145
BT-549 = tested on: BT-549
SF-268 = tested on: SF-268
KM12 = tested on: KM12
ACHN = tested on: ACHN
HOP-62 = tested on: HOP-62
NCI-H460 = tested on: NCI-H460
SF-295 = tested on: SF-295
Malme-3M = tested on: Malme-3M
OVCAR-8 = tested on: OVCAR-8
UO-31 = tested on: UO-31
NCI-H522 = tested on: NCI-H522
CAKI-1 = tested on: CAKI-1
SK-OV-3 = tested on: SK-OV-3
SNB-75 = tested on: SNB-75
MOLT-4 = tested on: MOLT-4
COLO 205 = tested on: COLO 205
IGROV-1 = tested on: IGROV-1
MDA-MB-231 = tested on: MDA-MB-231
SW-620 = tested on: SW-620
Hs-578T = tested on: Hs-578T
UACC-257 = tested on: UACC-257
A549 = tested on: A549
MCF7 = tested on: MCF7
NCI-H226 = tested on: NCI-H226
NCI/ADR-RES = tested on: NCI/ADR-RES
HCT-116 = tested on: HCT-116
NCI-H23 = tested on: NCI-H23
RXF 393 = tested on: RXF 393
SF-539 = tested on: SF-539
T47D = tested on: T47D

Measured: GI50

COc1ccc2c(c1)c(=Cc1ccc(N(C)C)cc1)c1cc(-c3ccccc3)[n+](C)n12
1650 nM: HCT-15
inactive: A498 1330 nM | OVCAR-4 1280 nM | ACHN 1140 nM | HOP-62 1360 nM | CAKI-1 1490 nM | NCI/ADR-RES 3660 nM
active: UACC-62 698 nM | SNB-19 282 nM | SN12C 345 nM | TK-10 461 nM | OVCAR-3 230 nM | HCC 2998 324 nM | SR 337 nM | HL-60 284 nM | 786-0 423 nM | PC-3 322 nM | OVCAR-5 875 nM | SK-MEL-2 452 nM | MDA-N 378 nM | K562 214 nM | EKVX 255 nM | LOX IMVI 374 nM | RPMI-8226 182 nM | HT-29 171 nM | U-251 301 nM | CCRF-CEM 269 nM | HOP-92 187 nM | SK-MEL-28 634 nM | M14 312 nM | SK-MEL-5 304 nM | MDA-MB-435 369 nM | DU-145 479 nM | BT-549 18.2 nM | SF-268 226 nM | KM12 448 nM | NCI-H460 245 nM | SF-295 264 nM | Malme-3M 343 nM | OVCAR-8 154 nM | UO-31 596 nM | NCI-H522 72.8 nM | SK-OV-3 447 nM | SNB-75 2.69 nM | MOLT-4 305 nM | COLO 205 24.6 nM | IGROV-1 144 nM | MDA-MB-231 274 nM | SW-620 377 nM | Hs-578T 124 nM | UACC-257 359 nM | A549 643 nM | MCF7 327 nM | NCI-H226 150 nM | HCT-116 314 nM | NCI-H23 59.2 nM | RXF 393 410 nM

Cc1ccc(S(=O)(=O)CC2CCCn3c2c(C#N)c2ccccc23)cc1 (stereo unspecified)
inactive: UACC-62 57400 nM | SNB-19 > 100000 nM | SN12C > 100000 nM | TK-10 > 100000 nM | SF-539 > 100000 nM | OVCAR-3 > 100000 nM | HCC 2998 > 100000 nM | 786-0 > 100000 nM | PC-3 54200 nM | OVCAR-5 > 100000 nM | SK-MEL-2 > 100000 nM | K562 > 100000 nM | EKVX > 100000 nM | LOX IMVI > 100000 nM | RPMI-8226 > 100000 nM | A498 > 100000 nM | HT-29 > 100000 nM | OVCAR-4 > 100000 nM | U-251 > 100000 nM | CCRF-CEM > 100000 nM | HOP-92 > 100000 nM | T47D 73300 nM | SK-MEL-28 > 100000 nM | M14 > 100000 nM | SK-MEL-5 > 100000 nM | MDA-MB-435 > 100000 nM | DU-145 > 100000 nM | BT-549 > 100000 nM | SF-268 > 100000 nM | KM12 > 100000 nM | ACHN > 100000 nM | HOP-62 > 100000 nM | SF-295 > 100000 nM | OVCAR-8 > 100000 nM | UO-31 > 100000 nM | NCI-H522 > 100000 nM | CAKI-1 > 100000 nM | SK-OV-3 > 100000 nM | SNB-75 > 100000 nM | MOLT-4 > 100000 nM | COLO 205 > 100000 nM | IGROV-1 > 100000 nM | MDA-MB-231 > 100000 nM | SW-620 > 100000 nM | Hs-578T > 100000 nM | UACC-257 > 100000 nM | A549 > 100000 nM | MCF7 > 100000 nM | NCI-H226 > 100000 nM | NCI/ADR-RES 65500 nM | HCT-116 > 100000 nM | NCI-H23 > 100000 nM | RXF 393 > 100000 nM
> 100000 nM: HCT-15
